Assay results published in the NIST ThermoML archive (doi:10.1016/j.jct.2018.02.022).

Assay: xn = mol fraction of the nth substance listed
Conditions: 92.3 kPa, Liquid; for viscosity: Concentric cylinders viscometry; for speed of sound: Frequency=3 MHz, Single path-length method; for mass density: Vibrating tube method

OCCO [1,2-ethanediol] + O
Conditions	mass density, 303.15 K [kg/m3]	mass density, 308.15 K [kg/m3]	speed of sound, 303.15 K [m/s]	speed of sound, 308.15 K [m/s]	viscosity, 303.15 K [mPa·s]	viscosity, 308.15 K [mPa·s]
x1 = 0.0101	1000.04	998.43	1523.1	1532.7	–	–
x1 = 0.0201	1004	1002.32	1536.3	1544.8	–	–
x1 = 0.0302	1007.88	1006.13	1549.1	1556.6	–	–
x1 = 0.0407	1011.76	1009.9	1561.7	1568.1	–	–
x1 = 0.0494	1014.98	1013.02	–	–	1.164	1.059
x1 = 0.0506	1015.24	1013.36	1573	1578.4	–	–
x1 = 0.0605	1018.73	1016.68	1583.6	1588	–	–
x1 = 0.0704	1022.12	1019.92	1594	1597.4	–	–
x1 = 0.0801	1025.1	1022.9	1602.9	1605.7	–	–
x1 = 0.0905	1028.31	1026.05	1612.5	1614.3	–	–
x1 = 0.0986	1030.68	1028.37	–	–	1.555	1.38
x1 = 0.0997	1031.05	1028.71	1620.2	1621.3	–	–
x1 = 0.1483	1043.73	1041.14	–	–	1.99	1.741
x1 = 0.1493	1044.06	1041.45	1654.1	1652	–	–
x1 = 0.1985	1054.47	1051.74	1676.9	1672.2	–	–
x1 = 0.2072	1056.16	1053.32	–	–	2.564	2.226
x1 = 0.2466	1063	1060.02	–	–	2.965	2.572
x1 = 0.2487	1063.38	1060.37	1690.5	1684.2	–	–
x1 = 0.298	1070.45	1067.33	–	–	3.541	3.066
x1 = 0.2998	1070.7	1067.57	1698.3	1690.6	–	–
x1 = 0.3318	1074.59	1071.38	1700.5	1692.2	–	–
x1 = 0.3399	1075.52	1072.31	–	–	4.029	3.48
x1 = 0.3921	1080.8	1077.51	–	–	4.67	4.026
x1 = 0.3981	1081.34	1077.99	1701.1	1691.7	–	–
x1 = 0.4446	1085.21	1081.86	–	–	5.349	4.605
x1 = 0.4521	1085.69	1082.37	1698.9	1688.8	–	–
x1 = 0.4934	–	1085.26	1695.7	1685.2	–	–
x1 = 0.5007	–	1085.73	–	–	6.109	5.245
x1 = 0.5485	1091.97	–	–	–	6.771	5.811
x1 = 0.552	1092.19	–	1690.2	1679.4	–	–
x1 = 0.5846	1093.94	1090.48	1686.7	1675.8	–	–
x1 = 0.6004	1094.63	1091.17	–	–	7.519	6.445
x1 = 0.6451	1096.63	1093.16	–	–	8.173	7.002
x1 = 0.6481	1096.77	1093.29	1679.9	1668.8	–	–
x1 = 0.6773	1097.96	1094.48	1676.6	1665.3	–	–
x1 = 0.7012	1098.83	1095.34	–	–	9.085	7.725
x1 = 0.7421	1100.21	1096.71	1669.4	1658	–	–
x1 = 0.7435	1100.29	1096.79	–	–	9.808	8.27
x1 = 0.7811	1101.44	1097.94	1665	1653.6	–	–
x1 = 0.7907	1101.74	1098.23	–	–	10.55	8.857
x1 = 0.8497	–	1099.81	1657.7	1646.1	–	–
x1 = 0.8505	–	1099.84	–	–	11.54	9.617
x1 = 0.89	1104.3	1100.78	–	–	12.15	10.11
x1 = 0.9002	1104.55	1101.03	1652.6	1640.9	–	–
x1 = 0.9059	1104.67	1101.15	1652.1	1640.4	–	–
x1 = 0.912	1104.78	1101.26	1651.6	1639.9	–	–
x1 = 0.9299	1105.19	1101.66	1649.8	1638.1	–	–
x1 = 0.9413	1105.43	1101.91	1648.7	1637	–	–
x1 = 0.9495	1105.62	1102.1	1647.8	1636.1	–	–
x1 = 0.9532	1105.68	1102.16	–	–	13.12	10.89
x1 = 0.9546	1105.72	1102.2	1647.5	1635.8	–	–
x1 = 0.9681	1105.98	1102.46	1646.3	1634.6	–	–
x1 = 0.9789	1106.18	–	1645.4	1633.6	–	–
x1 = 0.9893	1106.39	–	1644.3	1632.5	–	–
x1 = 1	1106.71	–	1642.9	1631.2	13.87	11.48
